For 53 molecules, IC50 results are on record in US20260158017A1, “KIF18A INHIBITOR” (WIGEN BIOMEDICINE TECHNOLOGY (SHANGHAI) CO., LTD., priority 2021, published 2026).

T1 sequence (Q8NI77 1-467): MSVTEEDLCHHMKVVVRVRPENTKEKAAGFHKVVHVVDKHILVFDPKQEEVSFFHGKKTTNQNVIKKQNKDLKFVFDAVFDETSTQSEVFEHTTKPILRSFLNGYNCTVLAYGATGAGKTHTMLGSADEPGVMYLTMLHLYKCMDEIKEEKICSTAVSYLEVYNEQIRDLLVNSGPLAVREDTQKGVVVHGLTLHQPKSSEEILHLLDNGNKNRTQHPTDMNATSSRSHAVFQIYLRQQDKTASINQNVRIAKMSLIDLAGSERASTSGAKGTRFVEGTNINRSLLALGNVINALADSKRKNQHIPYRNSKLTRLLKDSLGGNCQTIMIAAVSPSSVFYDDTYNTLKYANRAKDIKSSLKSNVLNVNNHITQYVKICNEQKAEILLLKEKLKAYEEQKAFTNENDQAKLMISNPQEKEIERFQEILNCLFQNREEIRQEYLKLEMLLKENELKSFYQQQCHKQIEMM
T1 sequence (P02550 whole entry partner): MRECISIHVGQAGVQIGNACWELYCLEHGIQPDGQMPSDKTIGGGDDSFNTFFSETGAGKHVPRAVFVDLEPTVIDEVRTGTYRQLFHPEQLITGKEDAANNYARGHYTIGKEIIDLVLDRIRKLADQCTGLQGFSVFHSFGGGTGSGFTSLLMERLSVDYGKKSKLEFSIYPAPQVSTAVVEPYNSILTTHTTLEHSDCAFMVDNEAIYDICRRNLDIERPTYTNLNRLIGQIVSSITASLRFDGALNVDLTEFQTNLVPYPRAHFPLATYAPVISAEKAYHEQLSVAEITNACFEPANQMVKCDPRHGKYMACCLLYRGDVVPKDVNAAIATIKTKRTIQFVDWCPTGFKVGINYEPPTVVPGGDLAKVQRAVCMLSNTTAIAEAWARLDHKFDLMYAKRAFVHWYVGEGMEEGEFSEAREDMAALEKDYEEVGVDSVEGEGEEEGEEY
T1 sequence (P02554 whole entry partner): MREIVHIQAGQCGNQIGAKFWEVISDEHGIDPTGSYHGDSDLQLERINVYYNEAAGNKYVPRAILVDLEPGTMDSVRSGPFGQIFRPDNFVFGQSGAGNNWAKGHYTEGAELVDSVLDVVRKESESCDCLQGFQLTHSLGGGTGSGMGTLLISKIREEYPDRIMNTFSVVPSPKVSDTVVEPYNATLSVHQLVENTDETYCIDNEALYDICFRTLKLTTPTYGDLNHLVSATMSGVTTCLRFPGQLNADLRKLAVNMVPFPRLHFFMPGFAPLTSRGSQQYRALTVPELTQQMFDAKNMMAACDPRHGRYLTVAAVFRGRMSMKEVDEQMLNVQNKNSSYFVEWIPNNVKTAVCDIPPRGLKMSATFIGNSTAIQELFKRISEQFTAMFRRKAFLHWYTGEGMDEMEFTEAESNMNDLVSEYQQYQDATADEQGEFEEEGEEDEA

This assay concerns the target T1, Recombinant human KIF18A (1-467His-tagged) protein (Homo sapiens, UniProt Q8NI77).
T1 construct: Recombinant human KIF18A (1-467His-tagged) protein; His; made in house
Put plainly: KIF18A enzyme assay (microtubule-stimulated ATPase activity, ADP-Glo). It is filed as biochemical. Particulars: 30 nM KIF18A, 75 μM ATP, 30 μg/mL pig microtubules; read-out: Inhibitory activity against KIF18A IC50. As for the experimental part:
In Vitro Assay of the Compounds of the Present Invention for Inhibiting Enzymatic Activity of KIF18A
KIF18A enzyme assay: The enzymatic activity of KIF18A after treatment with the compounds was measured by an assay of microtubule-stimulated ATPase activity. ADP generated from the ATPase reaction was measured in this assay. The compounds were serially diluted 2-fold in DMSO over a range of 22 concentration points. […] Concentrations of KIF18A protein, microtubules, and ATP in the reaction were optimized for a standardized homogenous enzyme assay using an ADP-Glo kinase/ATPase assay kit. A reaction buffer [(15 mM Tris, pH 7.5), 10 mM MgCl2, 0.01% PluronicF-68, 1 μM paclitaxel, and 30 μg/mL pig microtubules] was prepared. […] The resulting reaction mixture was incubated at room temperature for another 15 min. 5 μL of ADP-Glo reagent and 2.5 μL of the reaction mixture were mixed and the resulting mixture was incubated at room temperature for 40 min. 10 μL of ADP-Glo detection reagent was added and the mixture was incubated at room temperature for 40 min. Luminescence was read using a microplate reader and compared with that of the DMSO group, and then the inhibition percentages and IC50 values of the compounds were calculated.
For `CC1(F)CCN(c2cc(C(=O)Nc3cnc(S(=O)(=O)NCCO)cc3N3CCC4(CC3)CC4)ccc2[N+](=O)[O-])C1` (centres unmarked) [Compound 216], the IC50 is 100 to 500 nM. As for `C[C@@H](CO)S(=O)(=O)Nc1ccc(NC(=O)c2ccc(OCF)c(N3CCC(F)(F)CC3)n2)c(N2CCC3(CC2)CC3)c1` [Compound 557], the 50% inhibitory concentration (IC50) is ≤ 100 nM. The result for `C[C@@H]1CN(c2cc(NC(=O)c3ccc(NS(=O)(=O)CCO)cc3N3CCC4(CC3)CC4)ccc2OCF)CCO1` [Compound 386] reads ≤ 100 nM; that for `C[C@@H](CO)NS(=O)(=O)c1ccc(C(=O)Nc2ccc([N+](=O)[O-])c(N3CCC(F)(F)CC3)c2)c(N2CCC3(CC2)CC3)c1` [Compound 29], ≤ 100 nM; that for `C[C@@H]1CN(c2cc(NC(=O)c3ccc(NS(=O)(=O)[C@H](C)CO)cc3N3CCC4(CC3)CC4)ccc2[N+](=O)[O-])CCO1` [Compound 16], ≤ 100 nM. As to `CSc1ccc(NC(=O)c2cnc(NS(=O)(=O)[C@H](C)CO)cc2N2CCC3(CC2)CC3)cc1N1CCC(F)(F)CC1` [Compound 622], the IC50 was ≤ 100 nM. Take `O=C(Nc1ccc([N+](=O)[O-])c(N2CCC(F)(F)CC2)n1)c1cnc(S(=O)(=O)NCCO)cc1N1CCC2(CC1)CC2` [Compound 145]: the IC50 was ≤ 100 nM. As for `COc1ccc(NC(=O)c2cnc(S(=O)(=O)N[C@H](C)CO)cc2N2CCC3(CC2)CC3)nc1N1CCC(F)(F)CC1` [Compound 318], the figure is ≤ 100 nM; as for `O=C(Nc1ccc(NS(=O)(=O)CCO)cc1N1CCC2(CC1)CC2)c1ccc(OCF)c(N2CCC(F)CC2)c1` [Compound 521], ≤ 100 nM; as for `O=C(Nc1ccc([N+](=O)[O-])c(OC2CCC2)c1)c1ccc(S(=O)(=O)NCCO)cc1N1CCC2(CC1)CC2` [Compound 23], ≤ 100 nM. The result for `O=C(Nc1ccc(NS(=O)(=O)CCO)cc1N1CCC2(CC1)CC2)c1ccc([N+](=O)[O-])c(OCCC(F)(F)F)c1` [Compound 37] reads ≤ 100 nM; that for `CSc1ccc(NC(=O)c2ccc(NS(=O)(=O)CCO)cc2N2CCC3(CC2)CC3)cc1N1CCC(C)(F)C1` (centres unmarked) [Compound 584], ≤ 100 nM. Turning to `O=C(Nc1ccc(NS(=O)(=O)CCO)cc1N1CCC2(CC1)CC2)c1ccc(OCF)c(N2CCC3(CC3)C2)c1` [Compound 518], the half-inhibitory concentration (IC50) is ≤ 100 nM. With `CSc1ccc(NC(=O)c2ccc(NS(=O)(=O)CCO)cc2N2CCC3(CC2)CC3)cc1N1CCO[C@@H](C)C1` [Compound 579], the half-maximal inhibitory concentration (IC50) was ≤ 100 nM.

For the molecule `O=C(Nc1cnc(NS(=O)(=O)CCO)cc1N1CCC2(CC1)CC2)c1ccc([N+](=O)[O-])c(N2CCC3(CC3)C2)c1` [Compound 198], the IC50 is ≤ 100 nM. As for `C[C@@H]1CN(c2nc(C(=O)Nc3ccc(NS(=O)(=O)CCO)cc3N3CCC4(CC3)CC4)ccc2OCF)CCO1` [Compound 546], the IC50 is ≤ 100 nM. In the case of `O=C(Nc1ccc(OCF)c(OC2CCC2)c1)c1cnc(NS(=O)(=O)CCO)cc1N1CCC2(CC1)CC2` [Compound 455], the half-maximal inhibitory concentration (IC50) is ≤ 100 nM. Regarding `O=C(Nc1ccc(NS(=O)(=O)CCO)cc1N1CCC2(CC1)CC2)c1ccc(OCF)c(N2CCOCC2)n1` [Compound 556], the IC50 is ≤ 100 nM. As for `C[C@@H]1CN(c2nc(NC(=O)c3cnc(NS(=O)(=O)CCO)cc3N3CCC4(CC3)CC4)ccc2OCF)CCO1` [Compound 482], the figure is ≤ 100 nM; as for `COc1ccc(NC(=O)c2ccc(NS(=O)(=O)CCO)cc2N2CCC3(CC2)CC3)nc1N1CCC(F)CC1` [Compound 265], ≤ 100 nM.

With `C[C@@H]1CN(c2nc(NC(=O)c3ccc(S(=O)(=O)NCCO)cc3N3CCC4(CC3)CC4)ccc2OCF)CCO1` [Compound 434], the IC50 was ≤ 100 nM. On to `C[C@@H]1CN(c2nc(NC(=O)c3ccc(S(=O)(=O)NCCO)cc3N3CCC4(CC3)CC4)ccc2[N+](=O)[O-])CCO1` [Compound 82], for which the 50% inhibitory concentration (IC50) is ≤ 100 nM. On to `O=C(Nc1ccc([N+](=O)[O-])c(OC2CCC2)n1)c1cnc(NS(=O)(=O)CCO)cc1N1CCC2(CC1)CC2` [Compound 135], for which the IC50 is ≤ 100 nM. As to `O=C(Nc1ccc([N+](=O)[O-])c(N2CC3CC3C2)n1)c1cnc(S(=O)(=O)NCCO)cc1N1CCC2(CC1)CC2` (centres unmarked) [Compound 154], the IC50 is ≤ 100 nM.

In the case of `C[C@@H]1CN(c2cc(C(=O)Nc3ccc(S(=O)(=O)NCCO)cc3N3CCC4(CC3)CC4)ccc2OCF)CCO1` [Compound 530], the half-maximal inhibitory concentration (IC50) lay within 100 to 500 nM. The result for `CSc1ccc(NC(=O)c2ccc(NS(=O)(=O)[C@H](C)CO)cc2N2CCC3(CC2)CC3)cc1N1CCO[C@H](C)C1` [Compound 592] reads ≤ 100 nM; that for `COc1ccc(NC(=O)c2ccc(NS(=O)(=O)CCO)cc2N2CCC3(CC2)CC3)nc1N1CCC(C)(F)C1` (centres unmarked) [Compound 264], ≤ 100 nM; that for `O=C(Nc1ccc([N+](=O)[O-])c(N2CCC(F)CC2)n1)c1cnc(S(=O)(=O)NCCO)cc1N1CCC2(CC1)CC2` [Compound 153], ≤ 100 nM. As for `O=C(Nc1ccc(NS(=O)(=O)CCO)cc1N1CCC2(CC1)CC2)c1ccc([N+](=O)[O-])c(N2CCC3(CC3)C2)n1` [Compound 166], the IC50 is ≤ 100 nM. For `COc1ccc(C(=O)Nc2ccc(NS(=O)(=O)CCO)cc2N2CCC3(CC2)CC3)nc1N1CCOCC1` [Compound 332], the concentration for half-maximal inhibition (IC50) was ≤ 100 nM. `O=C(Nc1ccc([N+](=O)[O-])c(N2CC3CC3C2)c1)c1ccc(S(=O)(=O)NCCO)cc1N1CCC2(CC1)CC2` (centres unmarked) [Compound 26]: the half-maximal inhibitory concentration (IC50) is ≤ 100 nM. As for `CC1(F)CCN(c2nc(NC(=O)c3cnc(S(=O)(=O)NCCO)cc3N3CCC4(CC3)CC4)ccc2[N+](=O)[O-])C1` (centres unmarked) [Compound 152], the figure is ≤ 100 nM; as for `C[C@H](CO)NS(=O)(=O)c1ccc(C(=O)Nc2ccc([N+](=O)[O-])c(N3CCO[C@H](C)C3)c2)c(N2CCC3(CC2)CC3)c1` [Compound 32], ≤ 100 nM. Take `O=C(Nc1ccc([N+](=O)[O-])c(N2CCC(F)CC2)c1)c1ccc(S(=O)(=O)NCCO)cc1N1CCC2(CC1)CC2` [Compound 25]: the IC50 is ≤ 100 nM. The result for `CC1(F)CCN(c2cc(NC(=O)c3ccc(NS(=O)(=O)CCO)cc3N3CCC4(CC3)CC4)ccc2OCF)C1` (centres unmarked) [Compound 392] reads ≤ 100 nM. The result for `C[C@H](CO)NS(=O)(=O)c1cc(N2CCC3(CC2)CC3)c(C(=O)Nc2ccc([N+](=O)[O-])c(N3CCO[C@H](C)C3)n2)cn1` [Compound 160] reads ≤ 100 nM. As for `COc1ccc(NC(=O)c2cnc(NS(=O)(=O)CCO)cc2N2CCC3(CC2)CC3)nc1N1CCC(C)(F)C1` (centres unmarked) [Compound 296], the figure is ≤ 100 nM; as for `O=C(Nc1ccc([N+](=O)[O-])c(OCCC(F)(F)F)c1)c1cnc(S(=O)(=O)NCCO)cc1N1CCC2(CC1)CC2` [Compound 117], ≤ 100 nM. With `C[C@@H]1CN(c2nc(NC(=O)c3cnc(NS(=O)(=O)[C@@H](C)CO)cc3N3CCC4(CC3)CC4)ccc2[N+](=O)[O-])CCO1` [Compound 143], the 50% inhibitory concentration (IC50) is ≤ 100 nM.

For the molecule `O=C(Nc1cnc(NS(=O)(=O)CCO)cc1N1CCC2(CC1)CC2)c1ccc([N+](=O)[O-])c(N2CC3CC3C2)n1` (centres unmarked) [Compound 234], the IC50 is ≤ 100 nM.

As for `C[C@@H]1CN(c2cc(C(=O)Nc3cnc(S(=O)(=O)N[C@@H](C)CO)cc3N3CCC4(CC3)CC4)ccc2[N+](=O)[O-])CCO1` [Compound 223], the concentration for half-maximal inhibition (IC50) was in the range of 100 to 500 nM. The result for `COc1ccc(C(=O)Nc2cnc(NS(=O)(=O)[C@H](C)CO)cc2N2CCC3(CC2)CC3)nc1N1CCO[C@H](C)C1` [Compound 368] reads ≤ 100 nM; that for `O=C(Nc1ccc(OCF)c(N2CCC(F)(F)CC2)c1)c1cnc(NS(=O)(=O)CCO)cc1N1CCC2(CC1)CC2` [Compound 449], ≤ 100 nM.

For the molecule `COc1ccc(NC(=O)c2ccc(NS(=O)(=O)CCO)cc2N2CCC3(CC2)CC3)nc1N1CC2CC2C1` (centres unmarked) [Compound 266], the IC50 was ≤ 100 nM. The result for `C[C@@H]1CN(c2cc(C(=O)Nc3ccc(NS(=O)(=O)[C@@H](C)CO)cc3N3CCC4(CC3)CC4)ccc2OCF)CCO1` [Compound 527] reads ≤ 100 nM; that for `CC(C)(CO)Nc1cc(NC(=O)c2cnc(S(=O)(=O)NCCO)cc2N2CCC3(CC2)CC3)ccc1OCF` [Compound 475], ≤ 100 nM. `O=C(Nc1cnc(NS(=O)(=O)CCO)cc1N1CCC2(CC1)CC2)c1ccc([N+](=O)[O-])c(OC2CCC2)n1` [Compound 231]: the IC50 is ≤ 100 nM.

With `COc1ccc(C(=O)Nc2cnc(NS(=O)(=O)CCO)cc2N2CCC3(CC2)CC3)nc1OC1CCC1` [Compound 359], the IC50 is ≤ 100 nM. The result for `O=C(Nc1cnc(NS(=O)(=O)CCO)cc1N1CCC2(CC1)CC2)c1ccc([N+](=O)[O-])c(N2CC(F)(F)C2)n1` [Compound 228] reads ≤ 100 nM. The result for `O=C(Nc1ccc([N+](=O)[O-])c(N2CCC3(CC3)C2)c1)c1cnc(S(=O)(=O)NCCO)cc1N1CCC2(CC1)CC2` [Compound 118] reads ≤ 100 nM; that for `C[C@@H](CO)NS(=O)(=O)c1ccc(NC(=O)c2ccc(OCF)c(N3CCC(F)(F)CC3)c2)c(N2CCC3(CC2)CC3)c1` [Compound 541], 100 to 500 nM; that for `CSc1ccc(NC(=O)c2ccc(NS(=O)(=O)CCO)cc2N2CCC3(CC2)CC3)nc1OCCC(F)(F)F` [Compound 597], ≤ 100 nM. The result for `CC(C)(CO)Nc1cc(NC(=O)c2cnc(S(=O)(=O)NCCO)cc2N2CCC3(CC2)CC3)ccc1[N+](=O)[O-]` [Compound 123] reads ≤ 100 nM.
